Laboratory results from patent EP4775208A1, “USE OF PRMT5 INHIBITOR IN TREATMENT OF TUMORS OR CANCERS” (Apeiron Therapeutics (Hong Kong) Ltd., priority 2023, dated 2025).

Experiments:
[1] = system: HCT-116 MTAP wild-type cells; assay: Inhibition of proliferation of HCT-116 MTAP wild-type cells (Cell-Titer Glo); assay type: cell-based; conditions: 8 days
Protocol: Test 2: Compound's inhibitory activity on proliferation of HCT-116 MTAP wild-type cells.
Materials and Cells: HCT-116 MTAP wild-type cells obtained from Kyinno Bio (China); RPMI-1640 medium, fetal bovine serum, and penicillin-streptomycin purchased from Thermo Fisher Scientific (America); 384-well plates from PerkinElmer (America); Cell-Titer Glo assay kit from Promega (America).
Cell Culture: HCT116 MTAP wild-type cells were cultured in RPMI 1640 medium containing 10% fetal bovine serum and 1% penicillin-streptomycin at 37°C, 5% CO2. Only cells in logarithmic growth phase were used for experiments.
(§1) Cell Proliferation Inhibition Assay: The compound's inhibitory activity on HCT-116 MTAP wild-type cells was assessed using the Cell-Titer Glo assay kit. Adjusting cell concentration, 40 µL was seeded into a 384-well plate and cultured overnight at 37°C, 5% CO2. Each well received 40 nL of the compound, achieving concentrations from 0 to 10,000 nM (starting concentration 10,000 nM, 3-fold dilution, 10 points), with 0.1% DMSO. The cell plate was incubated for 8 days at 37°C, 5% CO2. Cell-Titer Glo reagent (40 µL) was added to measure cell viability.

[2] = system: HCT-116 MTAP(-/-) deficient cells; assay: Inhibition of proliferation of HCT-116 MTAP(-/-) deficient cells (Cell-Titer Glo); assay type: cell-based; conditions: 8 days
Protocol: Test 1: Compound's inhibitory activity on proliferation of HCT-116 MTAP(-/-) deficient cells.
Materials and Cells: HCT-116 MTAP(-/-) deficient cells obtained from Kyinno Bio (China); RPMI-1640 medium, fetal bovine serum, and penicillin-streptomycin purchased from Thermo Fisher Scientific (America); 384-well plates from PerkinElmer (America); Cell-Titer Glo assay kit from Promega (America).
Cell Culture: HCT116 MTAP(-/-) deficient cells were cultured in RPMI 1640 medium containing 10% fetal bovine serum and 1% penicillin-streptomycin at 37°C, 5% CO2. Only cells in logarithmic growth phase were used for experiments.
as §1, with “MTAP(-/-) deficient” for “MTAP wild-type”

Compound	IC50 ([1]; Homo sapiens, HCT-116, 192 h) [nM]	IC50 ([2]; Homo sapiens, HCT-116, 192 h) [nM]	IC50 [1] [nM]	IC50 [2] [nM]
4-amino-N-methyl-N-(8-(trifluoromethyl)-1, 3,4,5-tetrahydrobenzo [c]oxepin-5-yl)imidaz o[1,5-a]quinoxaline-8 -carboxamide [Example 44]	–	–	> 10000	310
4-amino-N-methyl-N-((1S,4S)-1-methyl-7-( trifluoromethyl)isochr oman-4-yl)imidazo[1, 5-a]quinoxaline-8-car boxamide [Example 105]	–	–	2190	66.1
Nc1nc2ccc(C(=O)N(C3CC3)[C@@H]3COc4cc(C(F)(F)F)ccc43)cc2n2cncc12 (single isomer, unassigned) [Example 84]	1470	21.9	–	–
Cc1ncn2c1c(N)nc1ccc(C(=O)N(C3CC3)[C@H]3COc4cc(C(F)(F)F)ccc43)cc12 (single isomer, unassigned) [Example 85]	781	791	–	–
Cc1ncn2c1c(N)nc1ccc(C(=O)N(C3CC3)[C@@H]3COc4cc(C(F)(F)F)ccc43)cc12 (single isomer, unassigned) [Example 86]	1330	61.1	–	–
CN(C(=O)c1ccc2nc(N)c3cncn3c2c1)[C@H]1COCc2ccc(C(F)(F)F)cc21 (single isomer, unassigned) [Example 93]	> 10000	> 3000	–	–
CN(C(=O)c1ccc2nc(N)c3cncn3c2c1)[C@@H]1COCc2ccc(C(F)(F)F)cc21 (single isomer, unassigned) [Example 94]	5170	80.8	–	–
C[C@@H]1OC[C@@H](N(C)C(=O)c2cc3c(cn2)nc(N)c2cncn23)c2ccc(C(F)(F)F)cc21 (single isomer, unassigned) [Example 97]	1550	29.8	–	–
CN(C(=O)c1ccc2nc(N)c3cncn3c2c1)[C@H]1CSc2cc(C(F)(F)F)ccc21 (single isomer, unassigned) [Example 101]	> 10000	2190	–	–
CN(C(=O)c1ccc2nc(N)c3cncn3c2c1)[C@@H]1CSc2cc(C(F)(F)F)ccc21 (single isomer, unassigned) [Example 102]	1990	7.9	–	–
CN(C(=O)c1cc2c(cc1F)nc(N)c1cncn12)[C@H]1COC(C)(C)c2cc(C(F)(F)F)ccc21 (single isomer, unassigned) [Example 134]	5890	623	–	–
CN(C(=O)c1cc2c(cc1F)nc(N)c1cncn12)[C@@H]1COC(C)(C)c2cc(C(F)(F)F)ccc21 (single isomer, unassigned) [Example 135]	1960	9.3	–	–
CC1OC[C@@H](N(C)C(=O)c2ccc3nc(N)c4cncn4c3c2)c2ccc(C(F)(F)F)cc21 (stereo partly drawn) [Example 5, 4-amino-N-methyl-N-((4S)-1-methyl-7-(trifluoromethyl)isochroman-4-yl)imidazo[1,5-a]quinoxaline-8-carbox amide]	280	4	–	–
Cc1ncn2c1c(N)nc1ccc(C(=O)N(C)[C@@H]3COc4cc(C(F)(F)F)ccc43)cc12 [Example 6, (S)-4-amino-N,3-dime thyl-N-(6-(trifluoromethyl)-2,3-dihydrobenzofuran-3-yl)imidazo[1 ,5-a]quinoxaline-8-car boxamide]	993	10.6	–	–
CN(C(=O)c1ccc2nc(N)c3cncn3c2c1)C1COCc2ccc(C(F)(F)F)cc21 (centres unmarked) [Example 8, 4-amino-N-methyl-N-(6-(trifluoromethyl)isochroman-4-yl)imidaz o[1,5-a]quinoxaline-8-carboxamide]	6480	106	–	–
CN(C(=O)c1cc2c(cc1F)nc(N)c1cncn12)C1COC(C)(C)c2cc(C(F)(F)F)ccc21 (centres unmarked) [Example 13, 4-amino-N-(1,1-dimethyl-7-(trifluoromethyl)isochroman-4-yl)-7-f luoro-N-methylimidaz o[1,5-a]quinoxaline-8-carboxamide]	2510	15.7	–	–
CC1OC[C@@H](N(C)C(=O)c2cc3c(cn2)nc(N)c2cncn23)c2ccc(Br)cc21 (stereo partly drawn) [Example 17, 4-amino-N-((4S)-7-bromo-1-methylisochroman-4-yl)-N-methyli midazo[1,5-a]pyrido[3,4-e]pyrazine-8-carb oxamide]	243	4.2	–	–
CN(C(=O)c1ccc2nc(N)c3cncn3c2c1)[C@@H]1CCc2cc(C(F)(F)F)ccc21 [Example 18, (R)-4-amino-N-methy 1-N-(5-(trifluoromethy 1)-2,3-dihydro-1H-inden-1-yl)imidazo[1,5-a]quinoxaline-8-carbox amide]	4330	14.5	–	–

Further lines, with some results ahead:

IC50 ([1]; Homo sapiens, HCT-116, 192 h) [nM]	IC50 ([2]; Homo sapiens, HCT-116, 192 h) [nM]	Compound	IC50 [1] [nM]	IC50 [2] [nM]
> 10000	211	C[C@@H]1OC[C@@H](N(C)C(=O)c2ccc3nc(N)c4cncn4c3c2)c2ccc(F)cc21 (single isomer, unassigned) [Example 95]	–	–
7130	928	C[C@@H]1OC[C@@H](N(C)C(=O)c2ccc3nc(N)c4cncn4c3c2)c2cc(F)ccc21 (single isomer, unassigned) [Example 99]	–	–
3580	68.3	C[C@H]1OC[C@@H](N(C)C(=O)c2ccc3nc(N)c4cncn4c3c2)c2cc(F)ccc21 (single isomer, unassigned) [Example 100]	–	–
> 10000	2310	CN(C(=O)c1ccc2nc(N)c3cncn3c2c1)C1COc2ccccc21 (centres unmarked) [Example 1, 4-amino-N-(2,3-dihydrobenzofuran-3-yl)-N-methylimidazo[1,5-a]quinoxaline-8-carboxamide]	–	–
6670	61	CN(C(=O)c1ccc2nc(N)c3cncn3c2c1)[C@@H]1COc2cc(-c3cnn(C)c3)ccc21 [Example 2, (S)-4-amino-N-methy 1-N-(6-(1-methyl-1H-pyrazol-4-yl)-2,3-dihydrobenzofuran-3-yl)i midazo[1,5-a]quinoxa line-8-carboxamide]	–	–
2250	23.4	CN(C(=O)c1ccc2nc(N)c3cncn3c2c1)[C@@H]1COc2cc(Br)ccc21 [Example 3, (S)-4-amino-N-(6-bromo-2,3-dihydrobenzof uran-3-yl)-N-methyli midazo[1,5-a]quinoxaline-8-carboxamide]	–	–
> 10000	141	CN(C(=O)c1ccc2nc(N)c3cncn3c2c1)C1COc2nc(C(F)(F)F)ccc21 (centres unmarked) [Example 7, 4-amino-N-methyl-N-(6-(trifluoromethyl)-2,3-dihydrofuro[2,3-b]pyridin-3-yl)imidazo[1,5-a]quinoxaline-8-car boxamide]	–	–
2140	41.1	CC1OC[C@@H](N(C)C(=O)c2ccc3nc(N)c4cncn4c3c2)c2ccc(F)cc21 (stereo partly drawn) [Example 9, 4-amino-N-((4S)-7-fluoro-1-methylisochroman-4-yl)-N-methyli midazo[1,5-a]quinoxa line-8-carboxamide]	–	–
3110	31.2	CN(C(=O)c1ccc2nc(N)c3cncn3c2c1)[C@@H]1COc2cc(C#N)ccc21 [Example 10, (S)-4-amino-N-(6-cyano-2,3-dihydrobenzof uran-3-yl)-N-methyli midazo[1,5-a]quinoxa line-8-carboxamide]	–	–
6410	1770	CN(C(=O)c1ccc2nc(N)c3cc(F)cn3c2c1)[C@@H]1COc2cc(Br)ccc21 [Example 11, (S)-4-amino-N-(6-bromo-2,3-dihydrobenzof uran-3-yl)-2-fluoro-N -methylpyrrolo[1,2-a] quinoxaline-8-carbox amide]	–	–
1110	6.1	CN(C(=O)c1cc2c(cc1Cl)nc(N)c1cncn12)[C@@H]1COc2cc(Br)ccc21 [Example 12, (S)-4-amino-N-(6-bromo-2,3-dihydrobenzof uran-3-yl)-7-chloro-N -methylimidazo[1,5-a] quinoxaline-8-carbox amide]	–	–
2230	23.2	CC1OC[C@@H](N(C)C(=O)c2ccc3nc(N)c4cncn4c3c2)c2cc(C(F)(F)F)ccc21 (stereo partly drawn) [Example 19, 4-amino-N-methyl-N-((4S)-1-methyl-6-(trifluoromethyl)isochroman-4-yl)imidazo[1,5-a]quinoxaline-8-carbox amide]	–	–
> 10000	> 3000	CN(C(=O)c1ccc2nc(N)c3cncn3c2c1)[C@@H]1COc2cc(P(C)(C)=O)ccc21 [Example 20, (S)-4-amino-N-(6-(dimethylphosphoryl)-2,3-dihydrobenzofuran-3-yl)-N-methylimidaz o[1,5-a]quinoxaline-8-carboxamide]	–	–
